In general, Kd refers to the equilibrium constant for the complex coming apart. The low end stands for higher affinity, the high end for lower affinity.

The results in this text go back to PMC9631409 (ACS Omega, 2022).

This experiment deals with T1, FmtA^Δ80 (Staphylococcus aureus, UniProt O50608).
T1 sequence (O50608 81-397): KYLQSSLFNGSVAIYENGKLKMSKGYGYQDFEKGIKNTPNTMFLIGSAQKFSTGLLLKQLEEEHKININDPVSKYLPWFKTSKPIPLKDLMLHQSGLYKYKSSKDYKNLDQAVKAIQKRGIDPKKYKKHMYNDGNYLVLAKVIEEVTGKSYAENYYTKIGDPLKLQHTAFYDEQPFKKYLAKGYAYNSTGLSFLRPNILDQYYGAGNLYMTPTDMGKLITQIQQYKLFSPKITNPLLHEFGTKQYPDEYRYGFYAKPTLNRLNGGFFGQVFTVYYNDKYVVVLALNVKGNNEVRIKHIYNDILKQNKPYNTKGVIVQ
The experiment in a line: isothermal titration calorimetry, one-site model. The format is binding. (In general: Isothermal titration calorimetry measures the heat released or taken up as one component is titrated into another.)

Turning to `CO/N=C1\CN(c2nc3c(cc2F)c(=O)c(C(=O)O)cn3C2CC2)CC1CN` (stereo not shown) [gemifloxacin], the Kd is 1.7 µM. Take `NC[C@@H]1O[C@H](O[C@H]2[C@@H](O)[C@H](O[C@@H]3[C@@H](O)[C@H](N)C[C@H](N)[C@H]3O[C@H]3O[C@H](CO)[C@@H](O)[C@H](O)[C@H]3N)O[C@@H]2CO)[C@H](N)[C@@H](O)[C@@H]1O` [paromomycin]: the Kd was determined as 8.56 µM. Under `[H]/N=C(/N)N[C@H]1[C@H](O)[C@@H](O)[C@H](O[C@@H]2O[C@@H](C)[C@](O)(C=O)[C@H]2O[C@@H]2O[C@@H](CO)[C@H](O)[C@@H](O)[C@@H]2NC)[C@@H](N/C(N)=N\[H])[C@@H]1O` [streptomycin] stands 11.1 µM; under `NC[C@H]1O[C@H](O[C@H]2[C@H](O)[C@@H](O[C@H]3O[C@H](CO)[C@@H](O)[C@H](N)[C@H]3O)[C@H](N)C[C@@H]2N)[C@H](N)C[C@@H]1O` [tobramycin], 25.8 µM.
